According to patent publication US7355024B2, “Regulatory sequences for modulation of INGAP expression and reporter constructs” (GMP Endotherapeutics, Inc., priority 2002, dated 2008):

Tests used:
[1] = system: hamster INGAP 5′-regulatory region; experiment: β-galactosidase reporter assay with hamster INGAP 5′-regulatory region fragments in transfected 293T cells; type: cell-based; conditions: human 293T cells
Text: Promoter analysis of INGAP identified a number of potential promoter-proximal regulatory sites including the consensus transcription factor binding sites; cAMP response element (CRE), AP-1 and STAT. Promoter-fragment reporter-gene constructs were transiently transfected into 293T cells and co-transfection of secretory alkaline phosphatase was used to normalize for transfection efficiency.
Reporter constructs containing INGAP 5′-regulatory region fragments 2—3sP (SEQ ID NO: 37), 2—3dP (SEQ ID NO: 38), 2—3pP (SEQ ID NO: 36), 14—3P (SEQ ID NO: 34), 16—3P (SEQ ID NO: 31), or 19—3P (SEQ ID NO: 23) were transfected into human cells. The pβGal-Basic plasmid without the hamster INGAP DNA was also transfected into human cells as a control to measure the level of endogenous reporter activity. Two days following transfection, the cells were treated with PMA for 24 hours or were untreated. To determine the level of promoter activity, the amount of β-galactosidase gene product was determined using a luminescent assay for β-galactosidase.
Reporter construct containing INGAP 5′-regulatory region DNA nucleotides 2030 to 3120 was transfected into human cells. The pβGal-Basic plasmid without the hamster INGAP DNA was also transfected into human cells as a control to measure the level of endogenous reporter activity. Two days following transfection, the cells were treated with LIF for 24 hours or were untreated. To determine the level of promoter activity, the amount of β-galactosidase gene product was determined using a luminescent assay for β-galactosidase.
To map the approximate location of PMA-initiated or LIF-initiated transcription factor binding different fragments of the hamster INGAP 5′-regulatory region were cloned into pβGal-Basic. The fragments cloned into the reporter construct were 2—3sP (SEQ ID NO: 37), 2—3dP (SEQ ID NO: 38), 2—3pP (SEQ ID NO: 36), 14—3P (SEQ ID NO: 34), 16—3P (SEQ ID NO: 31), or 19—3P (SEQ ID NO: 23). […] To determine the level of promoter activity, the amount of β-galactosidase gene product was determined using a luminescent assay for β-galactosidase. […]

INGAP gene = experiment: Northern RNA analysis of INGAP gene upregulation in AR42J cells; type: cell-based; conditions: rat AR42J cells; IL-6 1000 U/ml, 24 hours; FIG. 12
Protocol: To determine if INGAP RNA levels increase after stimulation with a cytokine that signals through STAT, rat amphocrine pancreatic cells, AR42J were treated with IL-6 (1000 U/ml) for 24 hours. Total RNA was extracted from the treated and untreated cells using techniques well known in the art, e.g., using TRIZOL® reagent.
Equal amounts of total RNA (10 μg) were loaded in 2.5% formaldehyde gel and electrophoresed for 4 hours at 70V with a constant circulation of the buffer using a circulating pump. The gel was photographed and washed with water twice at room temperature and soaked in 20×SSC. The gel was transferred to a nylon membrane (Amersham) in 20×SSC overnight following a standard procedure. The membrane was washed with 20×SSC to remove any agar that might have attached to the membrane and baked for 4 hours at […].
One hundred nanograms of hamster INGAP cDNA was labeled using Random Prime Labeling kit (Roche-BMB) and alpha-P^32 dCTP (ICN). Approximately 20 million counts were used for hybridization in 20 ml hybridization buffer following the standard procedure at 42° for overnight. The blot was washed as follows: 2-times at room temperature with 2×SSC for 10 minutes each; 2-times at 42° with 2×SSC for 10 minutes each; 2-times at 55° with 1×SSC for 10 minutes each. The membrane was exposed to the film (XOMAT-Kodak) and kept at −80° C. overnight before developing.

## CCCCCCCCCCCCCC(=O)O[C@@H]1[C@@H](C)[C@@]2(O)[C@@H](C=C(CO)C[C@]3(O)C(=O)C(C)=C[C@@H]23)[C@@H]2C(C)(C)[C@]12OC(C)=O [PMA, phorbol myristate acetate, reference compound]
[1]; constructs 2_3sP, 2_3dP, 2_3pP, 14_3P, 16_3P, 19_3P, PMA 6, 17, 50, 100 or 300 ng/ml, 24 hours, FIG. 10
  promoter activity (β-galactosidase reporter, luminescent assay): activated the cell reporter constructs

## IL-6: cytokine that signals through STAT
INGAP gene
  INGAP gene expression (RNA, Northern analysis): increase in INGAP gene expression

## LIF: human leukemia inhibitory factor (hLIF)
[1]; construct with INGAP 5′-regulatory region nucleotides 2030 to 3120, treated 24 hours, two days after transfection, FIG. 9B
  promoter activity (β-galactosidase reporter, luminescent assay): increase the activity of the 5′-regulatory region of mammalian INGAP
[1]; constructs 2_3sP, 2_3dP, 2_3pP, 14_3P, 16_3P, 19_3P, LIF 1, 10 or 30 ng/ml, 24 hours, FIG. 11
  promoter activity (β-galactosidase reporter, luminescent assay): activated the cell reporter constructs
